The numbers were not newly measured in patent publication US20070231385A1, “Controlled Release Pharmaceutical Composition and a Process for Preparing the Same” (Lupin Limited, priority 2003, published 2007), which cites them from elsewhere.

For the series the following is noted: background statement.

For the molecule `Cc1ccnc2c1NC(=O)c1cccnc1N2C1CC1` [Nevaripine], the serum half-life result is listed as “more than 25 hours”.
